Data from US20120258974A1, “USE OF A2B ADENOSINE RECEPTOR ANTAGONISTS FOR TREATING HEART FAILURE AND ARRHYTHMIA IN POST-MYOCARDIAL INFARCTION PATIENTS” (GILEAD SCIENCES, INC., priority 2011, published 2012).

Tests used:
[1] = tested on: CD1 mice with experimental AMI (permanent coronary artery ligation); assay: Circulating levels of cytokines and soluble adhesion molecules at day 28 (Luminex, Example 4); format: in vivo, mouse; settings: day 28 after surgery, vs vehicle
Experimental: (§1) Adult out-bred male CD1 mice (8-12 weeks of age) were supplied by Harlan Sprague Dawley (Indianapolis, Ind.). The experiments were conducted under the guidelines of laboratory animals for biomedical research published by National Institutes of Health (No. 85-23, revised 1996). The study protocol was approved by the Virginia Commonwealth University Institutional Animal Care and Use Committee. Experimental AMI was induced by permanent coronary artery ligation in order to induce a large non-reperfused infarct involving approximately 30% of the left ventricle and leading to an ischemic dilated cardiomyopathy (Mezzaroma et al. Proc Natl Acad Sci 2011—in press and Abbate et al. Circulation 2008; 117:2670-83). Briefly, mice were orotracheally intubated under anesthesia (pentobarbital 50 to 70 mg/kg), placed in the right lateral decubitus position, then subjected to a left thoracotomy, pericardiectomy, and ligation of the proximal left coronary artery. The chest was closed and the animals were allowed to recover. The mice surviving surgery were randomly assigned to the different groups of treatment (N=6-15 per group). Sham operations were performed wherein animals underwent the same surgical procedure without coronary artery ligation (N=4-8 per group).
The A2B AdoR antagonist, Compound A, was obtained from Gilead Sciences, Foster City, Calif. Mice were randomly assigned to treatment with Compound A (4 mg/kg) or matching dose of vehicle administered intraperitoneally (final volume 0.13 mL) every 12 hours for 14 days starting immediately after coronary artery ligation surgery. An additional group of mice received a lower dose of Compound A (2 mg/kg) to explore a dose-response relationship. Two additional groups of mice received Compound A (4 mg/kg) starting 1 hour after surgery to simulate a clinical scenario of treatment delay. […] To simulate a clinically relevant scenario in which drug treatment may occur with some delay after AMI, this example compared treatment with Compound A without delay with groups in which the A2B AdoR antagonist was given with 1 hour of delay.
The plasma concentrations of IL-1β and […], Tumor Necrosis Factor-α (TNF-α) and soluble adhesion molecules (E-selectin, Intercellular adhesion molecule-1 [ICAM-1] and vascular cellular adhesion molecule [VCAM]), that are induced by IL-1β, were determined at day 28 after surgery using Luminex kits obtained from Millipore (Billerica, Mass.) according to the manufacturer's instructions. A blood sample was obtained via a direct cardiac puncture immediately prior to killing the animals.

[2] = tested on: CD45 expression (leukocytes) in the heart; assay: Inflammatory infiltrate: CD45 expression in the heart by Western blot (Example 4); format: in vivo, mouse; settings: 72 hours after AMI; 4 mg/kg i.p. twice daily
Experimental: as §1, with “The mice surviving surgery were randomly assigned to the different groups of treatment (N=6-15 per group). Sham operations were performed wherein animals underwent the same surgical procedure without coronary artery ligation (N=4-8 per group).” left out
In order to quantify the inflammatory infiltrate in the heart during AMI, this example measured CD45 expression (a marker for leukocytes) in the heart using Western Blot. […] The band intensity was determined by densitometric analysis using the Scion Image software and the results were expressed as percentage increase in intensity compared to the control sham samples.

[3] = tested on: male mice with permanent coronary artery ligation; assay: Mouse model of myocardial infarction: ECHO, plasma biomarkers, mortality (Example 5); format: in vivo
Experimental: The effect of Compound A in a mouse model of myocardial infarction was also determined. Male mice underwent permanent coronary artery ligation or sham surgery. Compound A (4 mg/kg) was given i.p. BID starting immediately or 1 hr after the surgery and continued for 14 days. Trans-thoracic ECHO to measure LV end-diastolic/systolic diameter (LVEDD or LVESD), RV end-diastolic area (RVEDA) and myocardial performance index (MPI) was performed prior to surgery and after 7, 14 and 28 days. Analysis of biomarkers of tissue inflammation and injury was conducted on 28 days post-MI.

[4] = tested on: CD1 mice with experimental AMI (permanent coronary artery ligation); assay: Transthoracic echocardiography of cardiac remodeling after AMI (Example 4); format: in vivo, mouse
Experimental: as §1
The A2B AdoR antagonist, Compound A, was obtained from Gilead Sciences, Foster City, Calif. Mice were randomly assigned to treatment with Compound A (4 mg/kg) or matching dose of vehicle administered intraperitoneally (final volume 0.13 mL) every 12 hours for 14 days starting immediately after coronary artery ligation surgery. An additional group of mice received a lower dose of Compound A (2 mg/kg) to explore a dose-response relationship. Two additional groups of mice received Compound A (4 mg/kg) starting 1 hour after surgery to simulate a clinical scenario of treatment delay. […]
All mice underwent transthoracic echocardiography at baseline (before surgery), and at 7, 14 and 28 days after surgery (prior to sacrifice). […] This example measured the left ventricular (LV) end-diastolic and end-systolic areas at B-Mode and the LV end-diastolic diameter (LVEDD), LV end-systolic diameters (LVESD), LV anterior wall diastolic thickness (LVAWDT), and LV posterior wall diastolic thickness (LVPWDT) at M-Mode, as previously described (Abbate et al. Circulation 2008; 117:2670-83; Toldo et al. PloS One 2011; 6:e18102) and according to the American Society of Echocardiography recommendations (Gardin et al. J Am Soc Echocardiogr 2002; 15:272-90). LV fractional shortening (FS), LV ejection fraction (EF), LV mass and eccentricity (LVEDD/LVPWDT ratio) were calculated (Abbate et al. Circulation 2008; 117:2670-83; Toldo et al. PloS One 2011; 6:e18102; Gardin et al. J Am Soc Echocardiogr 2002; 15:272-90). The transmitral and left ventricular out flow tract Doppler spectra were recorded from an apical 4-chamber views, and the myocardial performance index (MPI or Tei index) was calculated as the […] of the isovolumetric contraction and relaxation time divided by the ejection time (Tei et al. Am J Cardiol 1995; 26:357-366). LV stroke volume was calculated using the Velocity-Time Integral (VTI) of the LV outflow tract flow multiplied by the LV outflow tract area, and cardiac output was calculated multiplying LV stroke volume by the heart rate (Abbate et al. Circulation 2008; 117:2670-83; Toldo et al. PloS One 2011; 6:e18102; Gardin et al. J Am Soc Echocardiogr 2002; 15:272-90). […]

[5] = mice with MI, 4 mg/kg i.p. BID starting immediately or 1 hr after the surgery
[6] = mice with MI, day 28 post-MI, treatment immediately after surgery

Q: With CCCn1c(=O)c2[nH]c(-c3cnn(Cc4cccc(C(F)(F)F)c4)c3)nc2n(CC)c1=O [Compound A, 3-ethyl-1-propyl-8-(1-(3-(trifluoromethyl)benzyl)-1H-pyrazol-4-yl)-1H-purine-2,6(3H,7H)-dione] as the compound, how does the E-selectin plasma level [1] read?
A: significantly reduced

Q: What about the ICAM-1 plasma level [1] of the same compound?
A: significantly reduced

Q: What about the IL-6 plasma level [1] of the same compound?
A: significantly reduced

Q: And the TNF-α plasma level [1]?
A: significantly reduced

Q: And the VCAM plasma level [1]?
A: significantly reduced

Q: And the “intensity of the leukocyte (CD45+) infiltrate, CD45 expression at Western blot” value [2]?
A: significantly reduced

Q: What about the “mortality rate (printed: morality rate) of mice with MI during the 4 weeks” value ([3]; 4 mg/kg i.p. BID for 14 days, vehicle 42%) of the same compound?
A: 25%

Q: And the “increase of plasma level of sE-selectin” value ([3]; mice with MI)?
A: significantly inhibited

Q: What about the “increase of plasma level of sICAM” value ([3]; mice with MI) of the same compound?
A: significantly inhibited

Q: What about the “increase of plasma level of sVCAM” value ([3]; mice with MI) of the same compound?
A: significantly inhibited

Q: And the “LV/RV dimensions (LVEDD, LVESD, RVEDA)” value [3, 5]?
A: significantly reduced

Q: And the MPI [3, 5]?
A: reduced

Q: And the “plasma concentration of IL-6” value [3, 6]?
A: significantly reduced

Q: And the “plasma concentration of ST2” value [3, 6]?
A: significantly reduced

Q: What about the “plasma concentration of TNF-α” value [3, 6] of the same compound?
A: significantly reduced

Q: And the “myocardial remodeling/function in sham mice” value ([3]; sham mice)?
A: no effect

Q: What about the “plasma biomarkers in sham-operated mice” value ([3]; sham-operated mice) of the same compound?
A: no effect

Q: And the “myocardial diastolic/systolic performance (myocardial performance index)” value ([4]; AMI mice)?
A: preservation

Q: And the “right ventricular enlargement and dysfunction” value ([4]; AMI mice)?
A: less

Q: What about the “absolute difference in mean LVEF vs vehicle” value ([4]; LV systolic function significantly greater in Compound A group) of the same compound?
A: 5%

Q: What about the “reduction of LV enlargement after AMI” value ([4]; at 28 days) of the same compound?
A: approximately 40%

Q: What about the “left and right ventricular enlargement and dysfunction” value ([4]; every 12 hours from surgery for 14 days, at 7 days, maintained at 14 and 28 days) of the same compound?
A: significant attenuation
